Experimental data as given in PubChem BioAssay AID1919015 (Molecular Pharmacology Branch, DTP, NCI, 2023).
Where “and” joins values, the source holds several entries; their conditions need not be identical. Identical values can stand only once.

Tested on: OVCAR-5 complex spheroids with HUVEC/MSC, viability, % test/control
Assay: Anticancer human tumor OVCAR-5 cell line growth inhibition [AhR];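 note: spheroids exposed to compounds for 7 days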;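 for viability, T/C: 100% = DMSO vehicle control wells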
Details: for viability, T/C: stronger effect = lower value
Excerpt: Multicellular complex tumor spheroid response to aryl hydrocarbon receptor antagonists in combination with a variety of drugs and investigational agents in selected tumor cell lines
The current study was undertaken to assess response to aryl hydrocarbon receptor antagonists in combination with standard-of-care drugs and investigational agents in solid tumor complex spheroid models. Complex spheroids include a stromal component modeled by human endothelial cells (HUVEC) and fibroblasts modeled by human mesenchymal stem cells (MSCs). The concentration ranges selected for each drug and investigational agent were based upon clinically achievable concentrations if the clinical Cmax of the agent was known.
Compounds. The drugs and investigational agents: BAY 2416964 (NSC825713), GNF351 (NSC835774), CH-223191 (NSC835775), CPI-455 (NSC825282), aza-TdCyd (NSC777586), decitabine (NSC127716), belinostat (NSC758774), entinostat (NSC756642), pevonedistat (NSC761192), tazemetostat (NSC777109), talazoparib (NSC765396), olaparib (NSC753686), selinexor (NSC780203), nedisertib (M3814, NSC802822), bortezomib (NSC756655), venetoclax (NSC766270), doxorubicin (NSC123127), elimusertib (BAY189344, NSC800525), ceralasertib (AZD6738, NSC777638), TAK-243 (NSC785004), alisertib (NSC759677), etoposide (NSC141540), topotecan (NSC609699), eribulin (NSC707389), gemcitabine (NSC613327), carboplatin (NSC241240), cisplatin (NSC119875), and SN-38 (NSC673596) were obtained from the National Cancer Institute (NCI) Developmental Therapeutics Program Chemical Repository (32). The FDA-approved anticancer drug set is available from the Developmental Therapeutics Program at https://dtp.cancer.gov/organization/dscb/obtaining/available plates.htm. […] The stock solutions were prepared in dimethyl sulfoxide (DMSO, Sigma-Aldrich, St. Louis, MO, cat. D2650), except for the platinum compounds which were prepared in saline (Quality Biological, Gaithersburg, MD, cat. 114-055-101), at 800-fold the tested concentration and stored at -70 degrees C prior to their use. All drugs and investigational agents were tested over a range starting from a high concentration at or near the clinical Cmax and decreasing in half-log increments. If the clinical Cmax for an agent had not been determined, the highest concentration tested was 10 microM (Table 1).
Cell Culture. All cells were maintained in an incubator at 37 degrees C and 5% CO2 with 95% humidity. The PDC lines were cultured according to standard operating procedures established by the NCI PDMR (https://pdmr.cancer.gov). Briefly, all PDCs were thawed and cultured in Matrigel-coated flasks prepared with a working solution of 1X Ham's F-12 nutrient mix, without supplementation (Invitrogen, Waltham, MA, cat. 11765054), 100 U/mL penicillin-streptomycin (Invitrogen, cat. 15140122), and 2.5% Matrigel (Corning Inc., Corning, NY, cat. 354248) for the first three passages. All PDCs were cultured in complete DMEM/F-12 media containing advanced DMEM/F-12 (Invitrogen, cat. 12634028), 4.9% defined fetal bovine serum, heat inactivated (HyClone Laboratories Inc., Logan, UT, cat. SH30070.03HI), 389 ng/mL hydrocortisone (Sigma-Aldrich, cat. H4001), 9.7 ng/mL human EGF recombinant protein (Invitrogen, cat. PHG0313), 23.4 microg/mL adenine (Sigma-Aldrich, cat. A2786), 97.3 U/mL penicillin-streptomycin (Invitrogen, cat. 15140122), 1.9 mM L-glutamine (Invitrogen, cat. 25030081), and 9.7 microM Y-27632 dihydrochloride (Tocris Bioscience, Bristol, United Kingdom, cat. 1254). The PDCs were cultured in complete DMEM/F12 media without 10 microM Y-27632 dihydrochloride for at least two passages prior to the screen. The established cell lines NCI-H1341 and […] were cultured in DMEM/F-12, HEPES (Invitrogen, cat. 11330032), 5% defined fetal bovine serum (HyClone Laboratories Inc., cat. SH30070.03), ITS premix universal culture supplement [insulin (5 microg/mL), transferrin (5 microg/mL), and selenious acid (5 ng/mL)] […]

## COc1ccc([C@@H](O)c2cc(-c3ncnc4cc(N5CCOCC5)ccc34)c(F)cc2Cl)nn1
Compound 0.0316 µM
  viability, T/C: 104% and 96.5% and 91.2%
Compound 0.1 µM
  viability, T/C: 101% and 96.4% and 97.7%
Compound 0.316 µM
  viability, T/C: 95.6% and 86.5% and 85%
Compound 1 µM
  viability, T/C: 76.2% and 70.7% and 63.6%
Compound 3.16 µM
  viability, T/C: 48.4% and 41.8% and 38.3%
Compound 10 µM
  viability, T/C: 23% and 23.6% and 18.7%
Curve of compound
  IC50: 2930 nM and 2290 nM and 1850 nM

## COc1cccc2c1C(=O)c1c(O)c3c(c(O)c1C2=O)CC(O)(C(=O)CO)CC3OC1CC(N)C(O)C(C)O1 (configuration not stated)
Compound 0.0316 µM
  viability, T/C: 66.2% and 56.6% and 74%
Compound 0.1 µM
  viability, T/C: 55.2% and 47.4% and 58.4%
Compound 0.316 µM
  viability, T/C: 49.6% and 41.8% and 46.6%
Compound 1 µM
  viability, T/C: 28.7% and 24.1% and 25.6%
Compound 3.16 µM
  viability, T/C: 1.66% and 1.72% and 3.06%
Compound 10 µM
  viability, T/C: 1.46% and 1.1% and 1.11%
Curve of compound
  IC50: 316 nM and 114 nM and 223 nM

## Cc1cncc(-c2nc(NCCc3c[nH]c4ccccc34)c3ncn(C(C)C)c3n2)c1
Compound 0.1 µM
  viability, T/C: 98.8% [middle of 20 runs]
Compound 0.316 µM
  viability, T/C: 97.6% [middle of 19 runs]
Compound 1 µM
  viability, T/C: 92.7% [middle of 20 runs]
Compound 3.16 µM
  viability, T/C: 78.4% [middle of 20 runs]
Compound alone, run of 08/16/2022
  IC50: 5.52 µM [middle of 22 runs]

## Cn1ncnc1C1c2n[nH]c(=O)c3cc(F)cc(c23)NC1c1ccc(F)cc1 (configuration not stated)
Compound 0.000316 µM
  viability, T/C: 104% and 100% and 102%
Compound 0.001 µM
  viability, T/C: 101% and 99% and 103%
Compound 0.00316 µM
  viability, T/C: 105% and 94.4% and 102%
Compound 0.01 µM
  viability, T/C: 98.9% and 92.5% and 97.6%
Compound 0.0316 µM
  viability, T/C: 101% and 92.3% and 97.3%
Compound 0.1 µM
  viability, T/C: 95.8% and 88% and 91.3%
Curve of compound
  IC50: > 100 nM

## NS(=O)(=O)OCC1CC(n2ccc3c(NC4CCc5ccccc54)ncnc32)CC1O (configuration not stated)
Compound 0.0316 µM
  viability, T/C: 99.8% and 98.4% and 111%
Compound 0.1 µM
  viability, T/C: 74.2% and 68.1% and 75%
Compound 0.316 µM
  viability, T/C: 41.8% and 38.4% and 42.8%
Compound 1 µM
  viability, T/C: 21.2% and 16.9% and 19.1%
Compound 3.16 µM
  viability, T/C: 14.8% and 11.5% and 13%
Compound 10 µM
  viability, T/C: 11.8% and 9.65% and 11.2%
Curve of compound
  IC50: 235 nM and 197 nM

## Nc1ccccc1NC(=O)c1ccc(CNC(=O)OCc2cccnc2)cc1
Compound 0.0316 µM
  viability, T/C: 92.2% and 93.7% and 84.8%
Compound 0.1 µM
  viability, T/C: 90.3% and 88.7% and 81.2%
Compound 0.316 µM
  viability, T/C: 75.1% and 77.2% and 67.5%
Compound 1 µM
  viability, T/C: 53.3% and 52.3% and 33.1%
Compound 3.16 µM
  viability, T/C: 23.5% and 21.1% and 19.9%
Compound 10 µM
  viability, T/C: 9.94% and 8.4% and 7.9%
Curve of compound
  IC50: 1080 nM and 1050 nM and 580 nM

## Nc1ccn(C2OC(CO)C(O)C2(F)F)c(=O)n1 (configuration not stated)
Compound 0.0316 µM
  viability, T/C: 32.6% and 27.9% and 33.8%
Compound 0.1 µM
  viability, T/C: 30.9% and 25.9% and 30.5%
Compound 0.316 µM
  viability, T/C: 31.4% and 27.5% and 30.8%
Compound 1 µM
  viability, T/C: 31.7% and 27.9% and 31.9%
Compound 3.16 µM
  viability, T/C: 32.3% and 29.7% and 33.2%
Compound 10 µM
  viability, T/C: 31.7% and 27.8% and 29.7%
Curve of compound
  IC50: < 31.6 nM

## Nc1ncn(C2CC(O)C(CO)O2)c(=O)n1 (configuration not stated)
Compound 0.00316 µM
  viability, T/C: 101% and 99.1% and 104%
Compound 0.01 µM
  viability, T/C: 97.8% and 103% and 98.1%
Compound 0.0316 µM
  viability, T/C: 94% and 94.8% and 88.5%
Compound 0.1 µM
  viability, T/C: 82.6% and 82.3% and 82%
Compound 0.316 µM
  viability, T/C: 76% and 70.8% and 68.8%
Compound 1 µM
  viability, T/C: 65% and 59.9% and 63.7%
Curve of compound
  IC50: > 1000 nM

## Nc1ncn(C2CC(O)C(CO)S2)c(=O)n1 (configuration not stated)
Compound 0.000949 µM
  viability, T/C: 103% and 101% and 99.6%
Compound 0.003 µM
  viability, T/C: 96.8% and 106% and 99.3%
Compound 0.00949 µM
  viability, T/C: 102% and 103% and 97.4%
Compound 0.03 µM
  viability, T/C: 99.8% and 99.5% and 105%
Compound 0.0949 µM
  viability, T/C: 91.7% and 90.7% and 99%
Compound 0.3 µM
  viability, T/C: 83.8% and 77.6% and 83.7%
Curve of compound
  IC50: > 300 nM

## O=C(C=Cc1cccc(S(=O)(=O)Nc2ccccc2)c1)NO
Compound 0.0316 µM
  viability, T/C: 94.1% and 97.8% and 90.4%
Compound 0.1 µM
  viability, T/C: 93.2% and 88% and 88.8%
Compound 0.316 µM
  viability, T/C: 76.5% and 73.4% and 70.6%
Compound 1 µM
  viability, T/C: 59.4% and 55.6% and 52.8%
Compound 3.16 µM
  viability, T/C: 30.6% and 24.4% and 27.7%
Compound 10 µM
  viability, T/C: 7.78% and 5.16% and 5.95%
Curve of compound
  IC50: 1410 nM and 1120 nM and 1110 nM

## O=C(C=Cn1cnc(-c2cc(C(F)(F)F)cc(C(F)(F)F)c2)n1)NNc1cnccn1
Compound 0.00949 µM
  viability, T/C: 109% and 108% and 104%
Compound 0.03 µM
  viability, T/C: 108% and 109% and 105%
Compound 0.0949 µM
  viability, T/C: 101% and 99.5% and 96.1%
Compound 0.3 µM
  viability, T/C: 85.9% and 76.1% and 78.1%
Compound 0.949 µM
  viability, T/C: 68.2% and 58.4% and 60.8%
Compound 3 µM
  viability, T/C: 47% and 42% and 40.6%
Curve of compound
  IC50: 2560 nM and 1610 nM and 1710 nM

## O=C(c1cc(Cc2n[nH]c(=O)c3ccccc23)ccc1F)N1CCN(C(=O)C2CC2)CC1
Compound 0.0316 µM
  viability, T/C: 98.3% and 103% and 100%
Compound 0.1 µM
  viability, T/C: 97.6% and 99% and 96.8%
Compound 0.316 µM
  viability, T/C: 92.4% and 97.2% and 96.1%
Compound 1 µM
  viability, T/C: 93% and 93.2% and 98.6%
Compound 3.16 µM
  viability, T/C: 90.9% and 91% and 92.9%
Compound 10 µM
  viability, T/C: 83.3% and 83.5% and 84.2%
Curve of compound
  IC50: > 10000 nM
